Laboratory results published in US20090299044A1 (priority 2006, published 2009).
Bridge positions count the residues as written; N and C are the ends. Peptide text beside a SMILES is read from it.

How the values were obtained:
[1] = target: T1, human Kv1.3 (CHO) (Homo sapiens, UniProt P22001); experiment: cell-based
T1 construct: expressed in transfected cells; host or cells: CHO

[2] = target: T2, human Kv1.1 (HEK293) (Homo sapiens, UniProt Q09470); experiment: cell-based
T2 construct: expressed in transfected cells; host or cells: HEK293
T2 sequence (Q09470 whole entry): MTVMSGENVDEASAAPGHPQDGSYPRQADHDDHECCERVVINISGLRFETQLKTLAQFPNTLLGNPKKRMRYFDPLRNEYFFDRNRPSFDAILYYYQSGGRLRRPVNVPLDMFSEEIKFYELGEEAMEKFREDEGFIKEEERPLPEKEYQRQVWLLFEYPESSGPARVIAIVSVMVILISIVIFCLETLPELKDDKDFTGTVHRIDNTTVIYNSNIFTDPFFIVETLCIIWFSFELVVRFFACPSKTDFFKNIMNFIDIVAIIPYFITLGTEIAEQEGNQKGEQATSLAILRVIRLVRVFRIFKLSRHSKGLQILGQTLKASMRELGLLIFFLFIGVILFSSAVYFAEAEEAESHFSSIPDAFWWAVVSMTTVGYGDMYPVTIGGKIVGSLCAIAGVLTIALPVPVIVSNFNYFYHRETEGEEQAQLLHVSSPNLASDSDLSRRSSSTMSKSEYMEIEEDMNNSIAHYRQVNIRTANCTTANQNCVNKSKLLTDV

T1 sequence (P22001 whole entry): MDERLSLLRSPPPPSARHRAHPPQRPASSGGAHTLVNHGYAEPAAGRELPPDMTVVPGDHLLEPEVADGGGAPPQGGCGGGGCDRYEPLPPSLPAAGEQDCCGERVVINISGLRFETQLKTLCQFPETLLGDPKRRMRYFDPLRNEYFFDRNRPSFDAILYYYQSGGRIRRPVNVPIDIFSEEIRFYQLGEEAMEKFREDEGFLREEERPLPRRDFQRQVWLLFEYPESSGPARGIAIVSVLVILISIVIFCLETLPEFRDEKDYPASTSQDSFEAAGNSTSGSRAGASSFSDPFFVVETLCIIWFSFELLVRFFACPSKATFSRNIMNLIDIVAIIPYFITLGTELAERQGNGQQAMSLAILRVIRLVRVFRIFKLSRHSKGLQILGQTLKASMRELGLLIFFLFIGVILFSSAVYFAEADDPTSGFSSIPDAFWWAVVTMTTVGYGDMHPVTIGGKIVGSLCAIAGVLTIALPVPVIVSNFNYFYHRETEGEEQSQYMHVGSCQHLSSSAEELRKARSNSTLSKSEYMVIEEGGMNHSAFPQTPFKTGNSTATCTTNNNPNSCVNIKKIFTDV

Row | SMILES | IC50 [1] [nM] | IC50 [2] [nM]
1 | CC[C@H](C)[C@@H]1NC(=O)[C@H](CCCCN)NC(=O)[C@@H](NC(=O)[C@H](CCCCN)NC(=O)[C@@H](NC(=O)[C@H](CC(N)=O)NC(=O)[C@@H](NC(=O)[C@@H](NC(=O)[C@@H](NC(=O)CN)C(C)C)[C@@H](C)CC)[C@@H](C)CC)C(C)C)CSSC[C@@H]2NC(=O)[C@H](CCCCN)NC(=O)CNC(=O)[C@H](Cc3ccccc3)NC(=O)[C@H](CCCNC(=N)N)NC(=O)[C@H](CCSC)NC(=O)CNC(=O)[C@H](C)NC(=O)[C@H](CCCCN)NC(=O)[C@H](CCCCN)NC(=O)[C@@H]3CSSC[C@@H](C(=O)N[C@H](C(=O)N4CCC[C@H]4C(=O)N[C@@H](CCCCN)C(=O)O)[C@@H](C)O)NC(=O)[C@H](Cc4c[nH]cn4)NC(=O)[C@H](CSSC[C@H](NC(=O)[C@H](CCC(N)=O)NC(=O)[C@H](CCCNC(=N)N)NC(=O)[C@H](CO)NC1=O)C(=O)N[C@@H](CC(C)C)C(=O)N[C@@H](CCCNC(=N)N)C(=O)N1CCC[C@H]1C(=O)N3)NC(=O)[C@H](CCCCN)NC(=O)CNC(=O)[C@H](CC(N)=O)NC(=O)[C@H](CCSC)NC2=O [E16R] (H-GVIINVKCKISRQCLRPCKKAGMRFGKCMNGKCHCTPK-OH; disulfide 8-28, 14-33, 18-35) | 0.0104 | < 0.00152
2 | CC[C@H](C)[C@@H]1NC(=O)[C@H](CCCCN)NC(=O)[C@@H](NC(=O)[C@H](CCCCN)NC(=O)[C@@H](NC(=O)[C@H](CC(N)=O)NC(=O)[C@@H](NC(=O)[C@@H](NC(=O)[C@@H](NC(=O)CN)C(C)C)[C@@H](C)CC)[C@@H](C)CC)C(C)C)CSSC[C@@H]2NC(=O)[C@H](CCCCN)NC(=O)CNC(=O)[C@H](Cc3ccccc3)NC(=O)[C@H](CCCNC(=N)N)NC(=O)[C@H](CCSC)NC(=O)CNC(=O)[C@H](C)NC(=O)[C@H](C)NC(=O)[C@H](CCCCN)NC(=O)[C@@H]3CSSC[C@@H](C(=O)N[C@H](C(=O)N4CCC[C@H]4C(=O)N[C@@H](CCCCN)C(=O)O)[C@@H](C)O)NC(=O)[C@H](Cc4c[nH]cn4)NC(=O)[C@H](CSSC[C@H](NC(=O)[C@H](CCC(N)=O)NC(=O)[C@H](CCCNC(=N)N)NC(=O)[C@H](CO)NC1=O)C(=O)N[C@@H](CC(C)C)C(=O)N[C@@H](CCC(=O)O)C(=O)N1CCC[C@H]1C(=O)N3)NC(=O)[C@H](CCCCN)NC(=O)CNC(=O)[C@H](CC(N)=O)NC(=O)[C@H](CCSC)NC2=O [K20A] (H-GVIINVKCKISRQCLEPCKAAGMRFGKCMNGKCHCTPK-OH; disulfide 8-28, 14-33, 18-35) | 1.04 | 0.185
3 | CC[C@H](C)[C@@H]1NC(=O)[C@H](CCCCN)NC(=O)[C@@H](NC(=O)[C@H](CCC(=O)O)NC(=O)[C@@H](NC(=O)[C@H](CC(N)=O)NC(=O)[C@@H](NC(=O)[C@@H](NC(=O)[C@@H](NC(=O)CN)C(C)C)[C@@H](C)CC)[C@@H](C)CC)C(C)C)CSSC[C@@H]2NC(=O)[C@H](CCCCN)NC(=O)CNC(=O)[C@H](Cc3ccccc3)NC(=O)[C@H](CCCNC(=N)N)NC(=O)[C@H](CCSC)NC(=O)CNC(=O)[C@H](C)NC(=O)[C@H](CCCCN)NC(=O)[C@H](CCCCN)NC(=O)[C@@H]3CSSC[C@@H](C(=O)N[C@H](C(=O)N4CCC[C@H]4C(=O)N[C@@H](CCCCN)C(=O)O)[C@@H](C)O)NC(=O)[C@H](Cc4c[nH]cn4)NC(=O)[C@H](CSSC[C@H](NC(=O)[C@H](CCC(N)=O)NC(=O)[C@H](CCCNC(=N)N)NC(=O)[C@H](CO)NC1=O)C(=O)N[C@@H](CC(C)C)C(=O)N[C@@H](CCC(=O)O)C(=O)N1CCC[C@H]1C(=O)N3)NC(=O)[C@H](CCCCN)NC(=O)CNC(=O)[C@H](CC(N)=O)NC(=O)[C@H](CCSC)NC2=O [K7E] (H-GVIINVECKISRQCLEPCKKAGMRFGKCMNGKCHCTPK-OH; disulfide 8-28, 14-33, 18-35) | 0.0142 | < 0.00152
4 | CC[C@H](C)[C@@H]1NC(=O)[C@H](CCCCN)NC(=O)[C@@H](NC(=O)[C@H](CCCCN)NC(=O)[C@@H](NC(=O)[C@H](CC(N)=O)NC(=O)[C@@H](NC(=O)[C@@H](NC(=O)[C@@H](NC(=O)CN)C(C)C)[C@@H](C)CC)[C@@H](C)CC)C(C)C)CSSC[C@@H]2NC(=O)[C@H](CCCCN)NC(=O)CNC(=O)[C@H](Cc3ccccc3)NC(=O)[C@H](CCCNC(=N)N)NC(=O)[C@H](CCSC)NC(=O)CNC(=O)[C@H](C)NC(=O)[C@H](CCCCN)NC(=O)[C@H](CCCCN)NC(=O)[C@@H]3CSSC[C@@H](C(=O)N[C@H](C(=O)N4CCC[C@H]4C(=O)N[C@@H](CCCNC(=N)N)C(=O)O)[C@@H](C)O)NC(=O)[C@H](Cc4c[nH]cn4)NC(=O)[C@H](CSSC[C@H](NC(=O)[C@H](CCC(N)=O)NC(=O)[C@H](CCCNC(=N)N)NC(=O)[C@H](CO)NC1=O)C(=O)N[C@@H](CC(C)C)C(=O)N[C@@H](CCC(=O)O)C(=O)N1CCC[C@H]1C(=O)N3)NC(=O)[C@H](CCCCN)NC(=O)CNC(=O)[C@H](CC(N)=O)NC(=O)[C@H](CCSC)NC2=O [K38R] (H-GVIINVKCKISRQCLEPCKKAGMRFGKCMNGKCHCTPR-OH; disulfide 8-28, 14-33, 18-35) | 0.015 | 0.00184
5 | CC[C@H](C)[C@@H]1NC(=O)[C@H](CCCCN)NC(=O)[C@@H](NC(=O)[C@H](CCCCN)NC(=O)[C@@H](NC(=O)[C@H](CC(N)=O)NC(=O)[C@@H](NC(=O)[C@@H](NC(=O)[C@@H](NC(=O)CN)C(C)C)[C@@H](C)CC)[C@@H](C)CC)C(C)C)CSSC[C@@H]2NC(=O)[C@H](CCCCN)NC(=O)CNC(=O)[C@H](Cc3ccccc3)NC(=O)[C@H](CCCNC(=N)N)NC(=O)[C@H](CCSC)NC(=O)CNC(=O)[C@H](C)NC(=O)[C@H](CCCCN)NC(=O)[C@H](CCCCN)NC(=O)[C@@H]3CSSC[C@@H](C(=O)N[C@H](C(=O)N4CCC[C@H]4C(=O)N[C@@H](CCCCN)C(=O)O)[C@@H](C)O)NC(=O)[C@H](Cc4c[nH]cn4)NC(=O)[C@H](CSSC[C@H](NC(=O)[C@H](CCC(N)=O)NC(=O)[C@H](CCCNC(=N)N)NC(=O)[C@H](CO)NC1=O)C(=O)N[C@@H](CC(C)C)C(=O)N[C@@H](CCC(=O)O)C(=O)N1CCC[C@H]1C(=O)N3)NC(=O)[C@H](CCCCN)NC(=O)[C@H](C)NC(=O)[C@H](CC(N)=O)NC(=O)[C@H](CCSC)NC2=O [G31A] (H-GVIINVKCKISRQCLEPCKKAGMRFGKCMNAKCHCTPK-OH; disulfide 8-28, 14-33, 18-35) | 0.0702 | 0.0618
6 | CC[C@H](C)[C@@H]1NC(=O)[C@H](CCCCN)NC(=O)[C@@H](NC(=O)[C@H](CCCCN)NC(=O)[C@@H](NC(=O)[C@H](CCC(=O)O)NC(=O)[C@@H](NC(=O)[C@@H](NC(=O)[C@@H](NC(=O)CN)C(C)C)[C@@H](C)CC)[C@@H](C)CC)C(C)C)CSSC[C@@H]2NC(=O)[C@H](CCCCN)NC(=O)CNC(=O)[C@H](Cc3ccccc3)NC(=O)[C@H](CCCNC(=N)N)NC(=O)[C@H](CCSC)NC(=O)CNC(=O)[C@H](C)NC(=O)[C@H](CCCCN)NC(=O)[C@H](CCCCN)NC(=O)[C@@H]3CSSC[C@@H](C(=O)N[C@H](C(=O)N4CCC[C@H]4C(=O)N[C@@H](CCCCN)C(=O)O)[C@@H](C)O)NC(=O)[C@H](Cc4c[nH]cn4)NC(=O)[C@H](CSSC[C@H](NC(=O)[C@H](CCC(N)=O)NC(=O)[C@H](CCCNC(=N)N)NC(=O)[C@H](CO)NC1=O)C(=O)N[C@@H](CC(C)C)C(=O)N[C@@H](CCC(=O)O)C(=O)N1CCC[C@H]1C(=O)N3)NC(=O)[C@H](CCCCN)NC(=O)CNC(=O)[C@H](CC(N)=O)NC(=O)[C@H](CCSC)NC2=O [N5E] (H-GVIIEVKCKISRQCLEPCKKAGMRFGKCMNGKCHCTPK-OH; disulfide 8-28, 14-33, 18-35) | 0.0234 | 0.00444
7 | CC[C@H](C)[C@@H]1NC(=O)[C@H](CCCCN)NC(=O)[C@@H](NC(=O)[C@H](CCCCN)NC(=O)[C@@H](NC(=O)[C@H](CC(N)=O)NC(=O)[C@@H](NC(=O)[C@@H](NC(=O)[C@@H](NC(=O)CN)C(C)C)[C@@H](C)CC)[C@@H](C)CC)C(C)C)CSSC[C@@H]2NC(=O)[C@H](CCCCN)NC(=O)CNC(=O)[C@H](Cc3ccccc3)NC(=O)[C@H](CCCNC(=N)N)NC(=O)[C@H](CCSC)NC(=O)[C@H](CCC(=O)O)NC(=O)[C@H](C)NC(=O)[C@H](CCCCN)NC(=O)[C@H](CCCCN)NC(=O)[C@@H]3CSSC[C@@H](C(=O)N[C@H](C(=O)N4CCC[C@H]4C(=O)N[C@@H](CCCCN)C(=O)O)[C@@H](C)O)NC(=O)[C@H](Cc4c[nH]cn4)NC(=O)[C@H](CSSC[C@H](NC(=O)[C@H](CCC(N)=O)NC(=O)[C@H](CCCNC(=N)N)NC(=O)[C@H](CO)NC1=O)C(=O)N[C@@H](CC(C)C)C(=O)N[C@@H](CCC(=O)O)C(=O)N1CCC[C@H]1C(=O)N3)NC(=O)[C@H](CCCCN)NC(=O)CNC(=O)[C@H](CC(N)=O)NC(=O)[C@H](CCSC)NC2=O [G22E] (H-GVIINVKCKISRQCLEPCKKAEMRFGKCMNGKCHCTPK-OH; disulfide 8-28, 14-33, 18-35) | 0.0139 | 0.00256
8 | CC[C@H](C)[C@@H]1NC(=O)[C@H](CCCCN)NC(=O)[C@@H](NC(=O)[C@H](CCCCN)NC(=O)[C@@H](NC(=O)[C@H](CC(N)=O)NC(=O)[C@@H](NC(=O)[C@@H](NC(=O)[C@@H](NC(=O)CN)C(C)C)[C@@H](C)CC)[C@@H](C)CC)C(C)C)CSSC[C@@H]2NC(=O)[C@H](CCCCN)NC(=O)CNC(=O)[C@H](Cc3ccccc3)NC(=O)[C@H](CCCNC(=N)N)NC(=O)[C@H](CCSC)NC(=O)CNC(=O)[C@H](C)NC(=O)[C@H](CCCCN)NC(=O)[C@H](CCCCN)NC(=O)[C@@H]3CSSC[C@@H](C(=O)N[C@H](C(=O)N4CCC[C@H]4C(=O)N[C@@H](CCCCN)C(=O)O)[C@@H](C)O)NC(=O)[C@H](Cc4c[nH]cn4)NC(=O)[C@H](CSSC[C@H](NC(=O)[C@H](CCC(N)=O)NC(=O)[C@H](CCCNC(=N)N)NC(=O)[C@H](C)NC1=O)C(=O)N[C@@H](CC(C)C)C(=O)N[C@@H](CCC(=O)O)C(=O)N1CCC[C@H]1C(=O)N3)NC(=O)[C@H](CCCCN)NC(=O)CNC(=O)[C@H](CC(N)=O)NC(=O)[C@H](CCSC)NC2=O [S11A] (H-GVIINVKCKIARQCLEPCKKAGMRFGKCMNGKCHCTPK-OH; disulfide 8-28, 14-33, 18-35) | 0.0408 | 0.113
